Source: article PMC8425678, “1-Oxo-3,4-dihydroisoquinoline-4-carboxamides as novel druglike inhibitors of poly(ADP-ribose) polymerase (PARP) with favourable ADME characteristics” (Journal of Enzyme Inhibition and Medicinal Chemistry, 2021)
Entries after “also recorded” stand apart in the source; their conditions may differ.

Key:
PARP1 = target: T1, PARP1 (Homo sapiens, UniProt P09874); assay: PARP1 colorimetric activity assay kit (BPS Bioscience); assay type: biochemical; details: for PARP1 inhibitory potency in words: compared with 3l; for inhibition at 1 µM: read-out: PARP1 % inhibition at 1 µM, 1 µM compound, triplicate (n = 3); for IC50: dose-response, mean (n = 3) ± SD, r^2 in brackets
T1 construct: purchased BPS Bioscience (San Diego, CA)
Procedure: (§1) The thirty-six 1-oxo-3,4-dihydroisoquinoline-4-carboxamides 3a-aj and 1-oxoisoquinoline-4-carboxamide 11 were tested for inhibitory activity towards PARP1 and PARP2 using the commercially available colorimetric activity assay kit from BPS Bioscience (San Diego, CA) in full accordance of the supplier’s method description[13]^,[14]. The initial screening was performed against PARP1 at 1 µM concentration of each compound, in triplicate (n = 3) measurements.

PARP2 = target: T2, PARP2 (Homo sapiens, UniProt Q9UGN5); assay: PARP2 colorimetric activity assay kit (BPS Bioscience); assay type: biochemical; details: for IC50: dose-response, mean (n = 3) ± SD, r^2 in brackets
T2 construct: purchased BPS Bioscience (San Diego, CA)
Procedure: as §1

T2 sequence (Q9UGN5 whole entry): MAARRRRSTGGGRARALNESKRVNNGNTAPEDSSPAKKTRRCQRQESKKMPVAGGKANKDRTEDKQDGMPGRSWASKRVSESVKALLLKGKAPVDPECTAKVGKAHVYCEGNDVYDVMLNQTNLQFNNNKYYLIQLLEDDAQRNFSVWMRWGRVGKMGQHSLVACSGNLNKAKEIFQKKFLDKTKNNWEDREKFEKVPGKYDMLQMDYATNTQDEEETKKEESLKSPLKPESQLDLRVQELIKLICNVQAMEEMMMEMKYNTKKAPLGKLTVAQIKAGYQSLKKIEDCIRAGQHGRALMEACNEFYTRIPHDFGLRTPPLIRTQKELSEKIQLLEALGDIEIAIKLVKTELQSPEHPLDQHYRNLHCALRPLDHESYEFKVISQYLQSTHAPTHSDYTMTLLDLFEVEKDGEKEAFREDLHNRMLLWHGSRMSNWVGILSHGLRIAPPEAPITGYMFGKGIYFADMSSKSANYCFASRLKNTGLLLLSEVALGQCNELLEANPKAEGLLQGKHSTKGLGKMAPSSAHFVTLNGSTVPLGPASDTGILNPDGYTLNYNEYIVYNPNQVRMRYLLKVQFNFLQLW
T1 sequence (P09874 whole entry): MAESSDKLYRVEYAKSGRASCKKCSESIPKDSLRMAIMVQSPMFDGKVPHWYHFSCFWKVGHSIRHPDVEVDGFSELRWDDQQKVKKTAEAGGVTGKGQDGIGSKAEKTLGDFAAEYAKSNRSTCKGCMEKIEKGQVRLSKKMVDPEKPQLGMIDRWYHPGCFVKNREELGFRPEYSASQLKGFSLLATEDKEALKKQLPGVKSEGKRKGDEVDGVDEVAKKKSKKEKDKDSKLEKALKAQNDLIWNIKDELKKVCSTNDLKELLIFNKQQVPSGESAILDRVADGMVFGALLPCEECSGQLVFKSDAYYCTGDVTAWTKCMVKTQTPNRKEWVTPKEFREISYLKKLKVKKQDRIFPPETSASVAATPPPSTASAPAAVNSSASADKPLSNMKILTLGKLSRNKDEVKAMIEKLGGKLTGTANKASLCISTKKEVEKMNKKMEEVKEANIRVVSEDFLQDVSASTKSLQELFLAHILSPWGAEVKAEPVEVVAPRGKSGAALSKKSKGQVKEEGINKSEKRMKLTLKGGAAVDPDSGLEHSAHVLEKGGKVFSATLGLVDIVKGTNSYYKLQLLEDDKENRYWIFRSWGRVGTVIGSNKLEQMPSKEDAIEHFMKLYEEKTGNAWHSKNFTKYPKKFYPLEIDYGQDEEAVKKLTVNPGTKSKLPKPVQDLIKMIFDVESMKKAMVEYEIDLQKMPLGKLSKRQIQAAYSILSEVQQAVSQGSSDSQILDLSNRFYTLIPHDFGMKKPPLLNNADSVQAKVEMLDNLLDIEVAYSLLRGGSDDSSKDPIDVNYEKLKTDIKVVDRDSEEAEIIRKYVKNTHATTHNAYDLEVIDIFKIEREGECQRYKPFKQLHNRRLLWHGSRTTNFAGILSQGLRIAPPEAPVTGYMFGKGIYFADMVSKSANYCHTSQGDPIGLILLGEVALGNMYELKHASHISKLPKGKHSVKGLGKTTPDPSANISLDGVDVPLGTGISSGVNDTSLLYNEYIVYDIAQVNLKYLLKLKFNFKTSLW

| Compound | inhibition at 1 µM (PARP1) [%] | melting point [°C] | also measured |
| --- | --- | --- | --- |
| CN(Cc1ccccc1)C(=O)C1CNC(=O)c2ccccc21 (stereo not shown) [Compound 3c, N-Benzyl-N-methyl-1-oxo-1,2,3,4-tetrahydroisoquinoline-4-carboxamide] | 18.6 ± 13.2 | 148 to 149 |  |
| O=C1NCC(C(=O)N2CCN(C3CCCCCC3)CC2)c2ccccc21 (stereo not shown) [Compound 3z, 4–(4-Cycloheptylpiperazine-1-carbonyl)-3,4-dihydroisoquinolin-1(2H)-one] | 45.2 ± 7.4 | 207 to 208 |  |
| CC1CCN(C(=O)C2CNC(=O)c3ccccc32)CC1 (stereo not shown) [Compound 3b, 4–(4-Methylpiperidine-1-carbonyl)-3,4-dihydroisoquinolin-1(2H)-one] | 42.7 ± 0.9 |  |  |
| O=C1NCC(C(=O)N2CCC(N3CCC(F)CC3)CC2)c2ccc(F)cc21 (stereo not shown) [Compound 3ai, 7-Fluoro-4–(4-fluoro-[1,4'-bipiperidine]-1'-carbonyl)-3,4-dihydroisoquinolin-1(2H)-one] | 93.7 ± 0.8 |  | IC50 (PARP1): 148 ± 17 nM; SI, selectivity index (PARP2 over PARP1) (PARP2): 3.52; IC50 (PARP2): 42 ± 2.3 nM |
| O=C1NCC(C(=O)N2CCN(Cc3ccccc3F)CC2)c2ccccc21 (stereo not shown) [Compound 3u, 4–(4-(2-Fluorobenzyl)piperazine-1-carbonyl)-3,4-dihydroisoquinolin-1(2H)-one] | 31.9 ± 2 |  |  |
| O=C1NCC(C(=O)N2CCC3(CCCCO3)CC2)c2ccccc21 (stereo not shown) [Compound 3r, 4–(1-Oxa-9-azaspiro[5.5]undecane-9-carbonyl)-3,4-dihydroisoquinolin-1(2H)-one] | 28.5 ± 7.1 |  |  |
| CN1CCN(C(=O)C2CNC(=O)c3ccccc32)CC1 (stereo not shown) [Compound 3h, 4–(4-Methylpiperazine-1-carbonyl)-3,4-dihydroisoquinolin-1(2H)-one] | 27.3 ± 6 | 163 to 164 |  |
| O=C1NCC(C(=O)N2CCCC2)c2ccccc21 (stereo not shown) [Compound 3m, 4-(Pyrrolidine-1-carbonyl)-3,4-dihydroisoquinolin-1(2H)-one] | 31.2 ± 3.4 |  |  |
| Cc1ccc(S(=O)(=O)N2CCN(C(=O)C3CNC(=O)c4ccccc43)CC2)cc1 (stereo not shown) [Compound 3i, 4–(4-Tosylpiperazine-1-carbonyl)-3,4-dihydroisoquinolin-1(2H)-one] | 28.9 ± 5.5 | 228 to 229 |  |
| CCN(CC)C1CCN(C(=O)C2CNC(=O)c3cc(F)ccc32)CC1 (stereo not shown) [Compound 3ad, 4–(4-(Diethylamino)piperidine-1-carbonyl)-7-fluoro-3,4-dihydroisoquinolin-1(2H)-one] | 92.6 ± 1.1 | 134 to 135 | IC50 (PARP1): 128 ± 7.1 nM; SI, selectivity index (PARP2 over PARP1) (PARP2): 3.23; IC50 (PARP2): 40.4 ± 5.8 nM |
| O=C1NCC(C(=O)NCc2ccc(F)cc2)c2ccccc21 (stereo not shown) [Compound 3p, N-(4-Fluorobenzyl)-1-oxo-1,2,3,4-tetrahydroisoquinoline-4-carboxamide] | 27.2 ± 4.3 | 188 to 189 |  |
| O=C1NCC(C(=O)N2CCc3ccccc3C2)c2ccccc21 (stereo not shown) [Compound 3e, 4–(1,2,3,4-Tetrahydroisoquinoline-2-carbonyl)-3,4-dihydroisoquinolin-1(2H)-one] | 56 ± 7.5 | 222 to 223 |  |
| O=C1NCC(C(=O)N2CCN(C3CCCC3)CC2)c2ccccc21 (stereo not shown) [Compound 3x, 4–(4-Cyclopentylpiperazine-1-carbonyl)-3,4-dihydroisoquinolin-1(2H)-one] | 44.6 ± 2.9 | 177 to 178 |  |
| O=C1NCC(C(=O)N2CCOCC2)c2ccccc21 (stereo not shown) [Compound 3j, 4-(Morpholine-4-carbonyl)-3,4-dihydroisoquinolin-1(2H)-one] | 57.6 ± 5.8 |  |  |
| CCN1CCN(C(=O)C2CNC(=O)c3ccccc32)CC1 (stereo not shown) [Compound 3f, 4–(4-ethylpiperazine-1-carbonyl)-3,4-dihydroisoquinolin-1(2H)-one] | 26.2 ± 9.7 |  |  |
| O=C1NCC(C(=O)N2CCC(Cc3ccccc3)CC2)c2ccccc21 (stereo not shown) [Compound 3k, 4–(4-Benzylpiperidine-1-carbonyl)-3,4-dihydroisoquinolin-1(2H)-one] | 45.1 ± 1.7 | 191 to 192 |  |
| O=C1NCC(C(=O)N2CCN(C3CCCCC3)CC2)c2ccccc21 (stereo not shown) [Compound 3y, 4–(4-Cyclohexylpiperazine-1-carbonyl)-3,4-dihydroisoquinolin-1(2H)-one] | 54.5 ± 4.6 | 197 to 198 | PARP1 inhibitory potency in words (PARP1): significantly less potent; PARP1 inhibitory potency in words (PARP1; listed as 3 y): inactive |
| CCOC(=O)N1CCN(C(=O)C2CNC(=O)c3ccccc32)CC1 (stereo not shown) [Compound 3a, Ethyl 4–(1-oxo-1,2,3,4-tetrahydroisoquinoline-4-carbonyl)piperazine-1-carboxylate] | 26.3 ± 7.7 |  |  |
| CCOC(=O)C1CCN(C(=O)C2CNC(=O)c3ccccc32)CC1 (stereo not shown) [Compound 3g, Ethyl 1–(1-oxo-1,2,3,4-tetrahydroisoquinoline-4-carbonyl)piperidine-4-carboxylate] | 47.6 ± 4.1 | 120 to 121 |  |

Second part, led by results:

| inhibition at 1 µM (PARP1) [%] | melting point [°C] | Compound | also measured |
| --- | --- | --- | --- |
| 33.2 ± 4.8 |  | O=C1NCC(C(=O)N2CCC(N3CCOCC3)CC2)c2ccccc21 (stereo not shown) [Compound 3v, 4–(4-Morpholinopiperidine-1-carbonyl)-3,4-dihydroisoquinolin-1(2H)-one] | PARP1 inhibitory potency in words (PARP1): significantly less potent; also recorded: inactive |
| 32.9 ± 2.4 | 155 to 156 | COc1ccccc1N1CCN(C(=O)C2CNC(=O)c3ccccc32)CC1 (stereo not shown) [Compound 3q, 4–(4-(2-Methoxyphenyl)piperazine-1-carbonyl)-3,4-dihydroisoquinolin-1(2H)-one] |  |
| 66.9 ± 1.5 |  | O=C1NCC(C(=O)N2CCNCC2)c2ccccc21 (stereo not shown) [Compound 3w, 4-(Piperazine-1-carbonyl)-3,4-dihydroisoquinolin-1(2H)-one] |  |
| 49.1 ± 2.6 | 171 to 174 | O=C(c1c[nH]c(=O)c2ccccc12)N1CCC(N2CCCCC2)CC1 [Compound 11, 4-([1,4'-Bipiperidine]-1'-carbonyl)isoquinolin-1(2H)-one] | fold lower potency compared to 3l or 3aa (PARP1; 3,4-dehydro analog vs 3l / 3aa): approximately 10 fold |
| 7.4 ± 8.7 |  | O=C1NCC(C(=O)NCc2ccc(Cl)cc2)c2ccccc21 (stereo not shown) [Compound 3d, N-(4-Chlorobenzyl)-1-oxo-1,2,3,4-tetrahydroisoquinoline-4-carboxamide] |  |
| 95.8 ± 0.7 | 141 to 142 | O=C1NCC(C(=O)N2CCC(N3CCCC3)CC2)c2ccc(F)cc21 (stereo not shown) [Compound 3ac, 7-Fluoro-4–(4-(pyrrolidin-1-yl)piperidine-1-carbonyl)-3,4-dihydroisoquinolin-1(2H)-one] | IC50 (PARP1): 69.5 ± 8.8 nM; SI, selectivity index (PARP2 over PARP1) (PARP2): 2.3; IC50 (PARP2): 29.6 ± 6.1 nM |
| 47.4 ± 3.7 | 171 to 172 | O=C1NCC(C(=O)N2CCSCC2)c2ccccc21 (stereo not shown) [Compound 3o, 4-(Thiomorpholine-4-carbonyl)-3,4-dihydroisoquinolin-1(2H)-one] |  |
| 12.5 ± 8.5 | 235 to 236 | O=C1NCC(C(=O)NCc2ccc(N3CCCCC3)cc2)c2ccccc21 (stereo not shown) [Compound 3s, 1-oxo-N-(4-(piperidin-1-yl)benzyl)-1,2,3,4-tetrahydroisoquinoline-4-carboxamide] |  |
| 95 ± 0.9 | 200 to 201 | CC1(C)CCN(C2CCN(C(=O)C3CNC(=O)c4cc(F)ccc43)CC2)CC1 (stereo not shown) [Compound 3ag, 4–(4,4-Dimethyl-[1,4'-bipiperidine]-1'-carbonyl)-7-fluoro-3,4-dihydroisoquinolin-1(2H)-one] | IC50 (PARP1): 102 ± 9.4 nM; SI, selectivity index (PARP2 over PARP1) (PARP2): 4.63; IC50 (PARP2): 22 ± 5.6 nM |
| 43.3 ± 5.9 |  | O=C1NCC(C(=O)N2CCN(Cc3ccc(F)cc3)CC2)c2ccccc21 (stereo not shown) [Compound 3t, 4–(4–(4-Fluorobenzyl)piperazine-1-carbonyl)-3,4-dihydroisoquinolin-1(2H)-one] |  |
| 96.9 ± 0.5 | 182 to 183 | CC1(C)CCCN(C2CCN(C(=O)C3CNC(=O)c4cc(F)ccc43)CC2)C1 (stereo not shown) [Compound 3af, 4–(3,3-Dimethyl-[1,4'-bipiperidine]-1'-carbonyl)-7-fluoro-3,4-dihydroisoquinolin-1(2H)-one] | IC50 (PARP1): 95.6 ± 11.5 nM; SI, selectivity index (PARP2 over PARP1) (PARP2): 5.05; IC50 (PARP2): 19.4 ± 3.7 nM |
| 81.9 ± 1.8 |  | O=C1NCC(C(=O)N2CCC(N3CCC(F)(F)CC3)CC2)c2ccc(F)cc21 (stereo not shown) [Compound 3ah, 4–(4,4-Difluoro-[1,4'-bipiperidine]-1'-carbonyl)-7-fluoro-3,4-dihydroisoquinolin-1(2H)-one] | IC50 (PARP1): 371 ± 42 nM; SI, selectivity index (PARP2 over PARP1) (PARP2): 4.46; IC50 (PARP2): 83.1 ± 6.9 nM |
| 96.6 ± 0.3 | 179 to 180 | O=C1NCC(C(=O)N2CCC(N3CCCCCC3)CC2)c2ccc(F)cc21 (stereo not shown) [Compound 3ae, 4-(4-(Azepan-1-yl)piperidine-1-carbonyl)-7-fluoro-3,4-dihydroisoquinolin-1(2H)-one] | IC50 (PARP1): 55 ± 9.9 nM; SI, selectivity index (PARP2 over PARP1) (PARP2): 2.61; IC50 (PARP2): 20.6 ± 2.5 nM |
| 90.5 ± 0.1 | 186 to 187 | COC1CCN(C2CCN(C(=O)C3CNC(=O)c4cc(F)ccc43)CC2)CC1 (stereo not shown) [Compound 3aj, 7-Fluoro-4–(4-methoxy-[1,4'-bipiperidine]-1'-carbonyl)-3,4-dihydroisoquinolin-1(2H)-one] | IC50 (PARP1): 266 ± 25 nM; SI, selectivity index (PARP2 over PARP1) (PARP2): 6.05; IC50 (PARP2): 44.1 ± 3.9 nM |
| 35.4 ± 5.1 |  | O=C1NCC(C(=O)N2CCCCCC2)c2ccccc21 (stereo not shown) [Compound 3n, 4-(Azepane-1-carbonyl)-3,4-dihydroisoquinolin-1(2H)-one] |  |
